{"source": "paper PMC8510480", "about": "“Searching Anti-Zika Virus Activity in 1H-1,2,3-Triazole Based Compounds” (Molecules, 2021)", "system": "ZIKV", "assay": "Post-infection test with ZIKV in Vero cells", "type": "cell-based, Zika virus", "settings": "for inhibition at 136.9 µM: CC20 (4b 136.90 µM; 6MMPr 60.50 µM); for inhibition at 136.9 µM / inhibition at 68.45 µM / inhibition at 34.23 µM / inhibition at 17.11 µM: read-out: % Viral Inhibition; for inhibition at 68.45 µM: CC20/2 (4b 68.45 µM; 6MMPr 30.25 µM); for inhibition at 34.23 µM: CC20/4 (4b 34.23 µM; 6MMPr 15.13 µM); for inhibition at 17.11 µM: CC20/8 (4b 17.11 µM; 6MMPr 7.6 µM)", "method": "We then investigated the activity of compound 4b after ZIKV infection in cells. As already noted in the screening test, 4b reduced ZIKV growth to levels similar to 6MMPr, a positive control previously described by our group. As in the pre-treatment test, four different concentrations were used, with the maximum being CC20 (136.90, 68.45, 34.22 and 17.11 µM). […] It is worth highlighting the constant decrease in the viral titer, even in lower concentrations, while the positive control 6MMPr reduces it only in the highest concentrations.\nStatistical analysis compared the concentrations of each compound at each collection time (3 d.p.i. and 5 d.p.i.) with a t-test.\nFigure 6 Comparison of anti-ZIKV activity between 6MMPr and 4b after three- and five-days post-infection (d.p.i.). 6MMPr and compound 4b were submitted to a post-infection test when Vero cells was infected with ZIKV at MOI 0.1 for 2 h then treated with compounds. Concentrations used in the test corresponded to CC20 (4b = 136.90 µM; 6MMPr = 60.50 µM), CC20/2 (4b = 68.45 µM; 6MMPr = 30.25 µM), CC20/4 (4b = 34.22 µM; 6MMPr = 15.13 µM) and CC20/8 (4b = 17.11 µM; 6MMPr = 7.56 µM). The experiment was done in triplicates and values are the mean and the SD. Statistical analysis was made between compounds using t-test on GraphPad Prism program. * = significative; ns = not statistically significant for p < 0.05. (a) 3 d.p.i. from both compounds. (b) 5 d.p.i. from both compounds.\n96-well plates with 1 × 10^4 cell/well were used in this assay and prepared 24 h previously. Seven serial dilutions of the virus were prepared in DMEM + 2% FBS culture medium. After removing the culture medium from the plate, 50 µL of each dilution was added to the wells in several repetitions. The plate was incubated at 37 °C and 5% atm CO2 for 1 h. After this interval, each well of the plate received an additional 100 µL of DMEM + 2% FBS culture medium. The plate was incubated again, in the same parameters, for 5 days. Some columns of the plate were selected for use as a cell control (culture medium only, no virus). The reading was performed in an inverted optical microscope AE2000, Motic (Motic, Kowloon Bay, Hong Kong) counting positives wells by the presence of cytopathic effect and the determination of the sample title was performed with the aid of the Microsoft Office Excel program (Microsoft® Office, Redmond, WA, USA).\n48-well plates with 2.5 × 10^4 cells/well were prepared 24 h previously. A ZIKV solution at MOI 0.1 was inoculated into the wells and the cells incubated at 37 °C and 5% CO2 atmosphere. After 2 h, the culture medium was removed, and the wells were washed with 1X PBS. 2:1 dilution of 4b (136.90 µM, 68.45 µM, 34.22 µM and 17.11 µM) and 6MMPr (60.50 µM, 30.25 µM, 15.13 µM and 7.56 µM) were added in triplicate. The cells were again incubated for 72 h and 120 h. The supernatants from the wells were collected and titrated.", "note": "Read-outs that look alike come from different tables or passages of the source.", "data": [{"smiles": "O=C1C(Br)=C(NCc2cn(CN3C(=O)c4ccccc4C3=O)nn2)C(=O)c2ccccc21", "note": "[Compound 4b]", "values": [{"measurement": "inhibition at 136.9 µM", "setting": "Zika virus, 72 h, 3 d.p.i.", "result": 94.9, "unit": "%"}, {"measurement": "inhibition at 68.45 µM", "setting": "Zika virus, 72 h, 3 d.p.i.", "result": 85.6, "unit": "%"}, {"measurement": "inhibition at 34.23 µM", "setting": "Zika virus, 72 h, 3 d.p.i.", "result": 85.8, "unit": "%"}, {"measurement": "inhibition at 17.11 µM", "setting": "Zika virus, 72 h, 3 d.p.i., negative = increased virus titer compared to control", "result": 88.8, "unit": "%"}, {"measurement": "inhibition at 136.9 µM", "setting": "Zika virus, 120 h, 5 d.p.i.", "result": 97.5, "unit": "%"}, {"measurement": "inhibition at 68.45 µM", "setting": "Zika virus, 120 h, 5 d.p.i.", "result": 93.7, "unit": "%"}, {"measurement": "inhibition at 34.23 µM", "setting": "Zika virus, 120 h, 5 d.p.i.", "result": 90.8, "unit": "%"}, {"measurement": "inhibition at 17.11 µM", "setting": "Zika virus, 120 h, 5 d.p.i.", "result": 96.8, "unit": "%"}, {"measurement": "IC50", "setting": "Zika virus, Vero, read-out: IC50 (50% inhibition concentration, virus replication)", "result": 146, "unit": "µM"}, {"measurement": "% Viral Inhibition", "setting": "post-infection test, Table 4, concentration and time not stated", "result": 91.1, "unit": "%"}, {"measurement": "effect on growth of the virus (viral titer)", "setting": "post-infection, four concentrations from CC20 to CC20/8, 3 and 5 d.p.i.", "result": "inhibits the growth of the virus at all concentrations used"}, {"measurement": "SI (selectivity index)", "setting": "ratio between the CC50 and IC50 values", "result": 2.3}]}]}
